# According to patent US20230028918A1, “COMPOSITIONS COMPRISING PKC-BETA INHIBITORS AND PROCESSES FOR THE PREPARATION THEREOF” (priority 2019, published 2023):
# Read-outs that look alike come from different tables or passages of the source.
# Tests used:
# Human PKC delta = Human PKC delta (Homo sapiens, UniProt Q05655); assay: PKC inhibition, in vitro enzyme assay; type: biochemical
# Source text: (§1) The methods for these determinations have been described (Grant, et al. 2010, Eur. J. Pharmacol. 627:16-25).
# pSHP2 (PKCβ cell assay) = assay: pSHP2 (PKCβ cell assay); type: cell-based
# Source text: as §1
# Interleukin-8 release = assay: Interleukin-8 release; type: cell-based
# Source text: as §1
# PKCβ signaling = PKCβ signaling assay: SERBP1 phosphorylation after PMA + ionomycin in whole blood of CLL/SLL patients dosed with Compound A; type: in vivo, human; details: for inhibition at 100 mg / inhibition at 200 mg / inhibition at 250 mg: Homo sapiens
# Procedure: A phosphor-flow assay was employed to measure the phosphorylation of SERBP1, a novel substrate for PKCP. Whole blood samples were taken at the appropriate time points from CLL patients receiving compound A as part of a phase 1 study, and were shipped overnight and processed for testing the next day. Whole blood was stimulated with PMA+ionomycin, cells were permeabilized, and the amount of SERBP1 phophorylation was measured. The reported data are the CD19+pSERBP1+ population, normalized to each patient's own unstimulated sample at the corresponding time point.
# To monitor PKCβ mediated signaling, a biomarker marker assay was developed using Alexa-647 label anti-phospho_SERBP1 antibody.
# Briefly, whole blood specimens from each patient was drawn into sodium citrate collection tubes. Samples will be shipped overnight to the flow cytometry lab for processing and testing
# Duplicates will be prepared for each treatment condition per donor. The following conditions will be prepared for each donor, unstimulated and PMA and ionomycin stimulated samples. Whole blood 200 μL will be placed in appropriate size cryovial. The samples will be treated as described in Table 1 and incubated at 37° C., 5.0% CO2 for 25-30 minutes.
# Following stimulation 2 mL 1×BD FACSLyse will be added, then vortexed and incubated for 12-15 minutes in the dark at ART. Samples will be stored immediately at −80° C. until testing.
# Samples from each subject will be processed in batches with all timepoints and include a normal human control unstimulated and stimulated sample. All samples will be processed and collected in singlet.
# Frozen samples will be thawed by placing samples in a 37° C. water or bead bath. Sample will be transferred to tubes and centrifuged at 1700 rpm, for 5 minutes at ambient room temperature (ART) with Brake on. Samples will be decanted and washed twice with 1 mL Stain Buffer (FBS). Samples will be resuspended in 200 μL Stain Buffer (FBS) and […] appropriate volume of fluorochrome-conjugated monoclonal surface antibodies will be added (Table 2).
# Samples will be hand mixed and incubated for 15-20 minutes in the dark at ART. Samples will be washed twice with 1 mL Stain Buffer (FBS). After wash, 200 μL Fix/Perm buffer will be added to each sample, then vortexed and incubated for 30-35 minutes in the dark at 2-8° C. Samples will be washed twice with 1 ml 1× Permeabilization Buffer (Perm Buffer). 100 μL of 1× Perm Buffer and appropriate volume of pSERBP1 AF647 will be added (documented in the study paperwork) and incubated for 30-35 minutes in the dark at 2-8° C. Samples will be washed twice with 1 mL 1× Perm Buffer. Samples will be resuspended in 125 μL 1× Stain Buffer FBS for acquisition on the flow cytometer.
# Flow cytometric data acquisition will be performed using the BD FACSCantoII™ which evaluates two scatter parameters and up to eight color fluorescence channels. Data will be acquired using BD FACSDiva™ software (version 6.1.3 or higher). The samples will be acquired to distinguish the cells of interest from other cell types in the peripheral blood by electronic gating on the basis of CD45 versus side scatter. The instrument will be set to collect 50,000 CD45+ lymphocyte events. Dual combination cytograms and/or histograms will be generated to illustrate the LL (−/−), LR (+/−), UL (−/+), UR (+/+) and/or interval gate for the fraction of the cells. The Flow Cytograms will be printed and maintained with study binder.
# The Median Fluorescence Intensity for the AF647 channel will be reported for each population (CD45, CD3, CD19 and CD20). Relative % data will also be reported for CD3+, CD3−CD19+, CD3−CD20+, CD3−CD19+HLADR+CD86+, and CD3−CD20+HLADR+CD86+. Data will be analyzed by Microsoft Excel to obtain descriptive statistics; i.e. Mean, SD, and CV %.
# The flow cytometry data are analyzed to determine the amount of SERBP1 phosphorylation following PMA/ionomycin stimulation.
# [1] = Compound A plasma concentration and food effect in patients; type: in vivo, human; details: for Compound A Plasma Concentration: Day 8 pre-dose trough (Cmin); for concentration at 3 h post-dose on Day 8: human, plasma, Day 8, 3 h post-dose peak
# Clinical tolerability = type: in vivo; details: human, plasma, oral; clinical trial, compound taken with food; read-out: Plasma Cmax that is well-tolerated
# primary CLL cells [2] = assay: Immunoblot of BCR signaling in primary CLL cells; type: cell-based; details: versus vehicle control
# primary CLL cells [3] = assay: CCL3 and CCL4 secretion by primary CLL cells (ELISA); type: cell-based; details: 5 μM, presence or absence of anti-IgM ligation, 24 hrs
# [4] = test system: primary CLL cells with WT and C481S BTK; assay: CD86 and HLA-DR expression on CpG-stimulated primary CLL cells with WT and C481S BTK (flow cytometry); type: cell-based; details: up to 10 μM, CpG stimulation, 48 hrs, baseline and post-relapse samples from ibrutinib treated patients
# Procedure: Cryopreserved baseline samples and post-relapse samples from ibrutinib treated patients (n=2) were thawed and treated with up to 10 μM compound A and stimulated with 3.2 M CpG. CD86 (FIG. 3A) and HLA-DR (FIG. 3B) expression was measured by flow cytometry at 48 hrs. Mean fluorescence intensity (MFI) is reported. Error bars represent standard deviation.
# physchem = details: pH 7
# Human PKC delta, sequence (Q05655 whole entry): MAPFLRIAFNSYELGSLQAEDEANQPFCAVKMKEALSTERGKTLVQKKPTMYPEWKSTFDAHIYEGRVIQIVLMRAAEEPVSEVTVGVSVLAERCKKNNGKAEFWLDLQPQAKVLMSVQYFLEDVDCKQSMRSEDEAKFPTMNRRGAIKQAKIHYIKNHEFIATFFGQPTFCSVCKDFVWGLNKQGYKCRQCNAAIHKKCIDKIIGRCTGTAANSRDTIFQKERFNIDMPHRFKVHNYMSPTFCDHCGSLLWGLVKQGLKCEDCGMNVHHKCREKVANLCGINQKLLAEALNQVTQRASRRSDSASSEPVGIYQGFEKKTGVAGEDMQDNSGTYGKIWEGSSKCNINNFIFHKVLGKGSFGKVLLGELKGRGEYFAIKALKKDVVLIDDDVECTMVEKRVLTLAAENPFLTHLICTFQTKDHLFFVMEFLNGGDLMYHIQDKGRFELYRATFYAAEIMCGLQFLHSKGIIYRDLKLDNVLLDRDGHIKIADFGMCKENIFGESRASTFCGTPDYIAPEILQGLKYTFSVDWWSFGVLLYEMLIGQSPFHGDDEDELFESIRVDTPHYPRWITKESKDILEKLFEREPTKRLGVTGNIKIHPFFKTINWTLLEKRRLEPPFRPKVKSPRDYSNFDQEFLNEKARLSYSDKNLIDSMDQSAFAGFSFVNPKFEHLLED
smiles,measurement,setting,value
"Cc1ncc(F)c(Nc2n[nH]c3c2CN(C(=O)N2C[C@@H](C)N(CC4CCOCC4)C[C@@H]2C)C3(C)C)n1 [Compound A, 5-{[(2S,5R)-2,5-dimethyl-4-(tetrahydro-2H-pyran-4-ylmethyl)piperazin-1-yl]carbonyl}-N-(5-fluoro-2-methylpyrimidin-4-yl)-6,6-dimethyl-1,4,5,6-tetrahydropyrrolo[3,4-c]pyrazol-3-amine]",Inhibition of PKC delta,Human PKC delta,does not significantly inhibit
same,IC50,pSHP2 (PKCβ cell assay),9.8 nM
same,IC50,Interleukin-8 release,39 nM
same,Mean Stimulation at Day 8 3 h Post-Dose Peak,"PKCβ signaling; 100 mg BID, N = 1",96%
same,Mean Stimulation at Day 8 Pre-Dose Trough (Cmin),"PKCβ signaling; 100 mg BID, N = 1",109%
same,Mean Stimulation at Day 8 3 h Post-Dose Peak,"PKCβ signaling; 200 mg BID, N = 3",100%
same,Mean Stimulation at Day 8 Pre-Dose Trough (Cmin),"PKCβ signaling; 200 mg BID, N = 3",121%
same,Mean Stimulation at Day 8 3 h Post-Dose Peak,"PKCβ signaling; 250 mg BID, N = 3",102%
same,Mean Stimulation at Day 8 Pre-Dose Trough (Cmin),"PKCβ signaling; 250 mg BID, N = 3",104%
same,Phosphorylation of SERBP1 (CD19+pSERBP1+ population),"PKCβ signaling; CLL patients in phase 1 study, PMA + ionomycin stimulated whole blood",inhibits phosphorylation of SERBP1 in vivo
same,inhibition at 100 mg,"PKCβ signaling; 192 h, 100 mg BID, Day 8 pre-dose, read-out: % Inhibition of Stimulation at Trough (Cmin)",51%
same,inhibition at 200 mg,"PKCβ signaling; 192 h, 200 mg BID, Day 8 pre-dose, read-out: % Inhibition of Stimulation at Trough (Cmin)",70%
same,inhibition at 250 mg,"PKCβ signaling; 192 h, 250 mg BID, Day 8 pre-dose, read-out: % Inhibition of Stimulation at Trough (Cmin)",97%
same,inhibition at 100 mg,"PKCβ signaling; 100 mg BID, Day 8, 3 h post-dose, read-out: % Inhibition of Stimulation at Peak",122%
same,inhibition at 200 mg,"PKCβ signaling; 200 mg BID, Day 8, 3 h post-dose, read-out: % Inhibition of Stimulation at Peak",102%
same,inhibition at 250 mg,"PKCβ signaling; 250 mg BID, Day 8, 3 h post-dose, read-out: % Inhibition of Stimulation at Peak",98%
same,Plasma concentration that completely suppresses PKCβ signaling,PKCβ signaling; whole blood samples from patients with CLL or SLL,500 to 600 ng/mL
same,Compound A Plasma Concentration,[1]; 100 mg BID,186 ng/mL
same,Compound A Plasma Concentration,[1]; 200 mg BID,295 ng/mL
same,Compound A Plasma Concentration,[1]; 250 mg BID,542 ng/mL
same,Effect of food on the PK profile,[1]; clinical trial data,does not have a significant effect
same,concentration at 3 h post-dose on Day 8,[1]; 100 mg BID,587 ng/mL
same,concentration at 3 h post-dose on Day 8,[1]; 200 mg BID,837 ng/mL
same,concentration at 3 h post-dose on Day 8,[1]; 250 mg BID,1310 ng/mL
same,Effect of food on the pharmacokinetics,[1]; single dose of the IR formulations,no significant effect
same,Cmax,Clinical tolerability,~2000 ng/mL
same,"Phosphorylation of PKCβ and downstream targets (pPKCβ, pERK, pIκBα, pGSK3β)",primary CLL cells [2],decreased phosphorylation
same,CCL3 and CCL4 secretion,primary CLL cells [3],inhibition of pro-inflammatory cytokine expression
same,CD86 and HLA-DR expression (MFI),[4],reduces activation
same,solubility at 24 h,physchem,1040 µg/mL
